Source: patent US8859491B2 (priority 2011, dated 2014)

Assays:
GLP-1 receptor [1] = biological target: T1, GLP-1 receptor (Homo sapiens, UniProt P43220); test: GLP-1 Activity (cAMP induction), CRE-luciferase reporter in HEK293 cells; format: cell-based
T1 construct: expressed in transfected cells; host or cells: HEK293
Protocol: (§1) Luminescence was measured after cell lysis and incubation with luciferin.
as §1, §1

GLP-1 receptor [2] = biological target: T1, GLP-1 receptor; test: GLP-1 Binding, [I125]-GLP-1 SPA with receptor membrane extracts
GLP-1 receptor [3] = biological target: T1, GLP-1 receptor; test: cAMP induction, firefly luciferase reporter assay in HEK293 cells, GLP-1 receptor; format: cell-based; settings: GLP-1 receptor versus glucagon receptor
Protocol: The ability of each peptide to induce cAMP was measured in a firefly luciferase-based reporter assay. […] HEK293 cells co-transfected with the receptor and luciferase gene linked to a cAMP responsive element were employed for the bioassay.
At the end of the incubation, 100 μL of LucLite luminescence substrate reagent (Perkin Elmer, Wellesley, Mass.) were added to each well. […] All EC50s and IC50s are reported in the following examples in nM, unless indicated otherwise.

glucocorticoid receptor = biological target: T2, glucocorticoid receptor (Homo sapiens, UniProt P04150); test: Glucocorticoid receptor luciferase reporter gene assay in HeLa cell clones (MMTV-LTR luciferase); format: cell-based; settings: Example 37; two HeLa reporter clones; compared with unconjugated dexamethasone
T2 construct: two clones of HeLa cells (ATCC #CCL-2) transfected with murine mammary tumor virus long terminal repeat-driven firefly luciferase; host or cells: HeLa
T2 sequence (P04150 1-777): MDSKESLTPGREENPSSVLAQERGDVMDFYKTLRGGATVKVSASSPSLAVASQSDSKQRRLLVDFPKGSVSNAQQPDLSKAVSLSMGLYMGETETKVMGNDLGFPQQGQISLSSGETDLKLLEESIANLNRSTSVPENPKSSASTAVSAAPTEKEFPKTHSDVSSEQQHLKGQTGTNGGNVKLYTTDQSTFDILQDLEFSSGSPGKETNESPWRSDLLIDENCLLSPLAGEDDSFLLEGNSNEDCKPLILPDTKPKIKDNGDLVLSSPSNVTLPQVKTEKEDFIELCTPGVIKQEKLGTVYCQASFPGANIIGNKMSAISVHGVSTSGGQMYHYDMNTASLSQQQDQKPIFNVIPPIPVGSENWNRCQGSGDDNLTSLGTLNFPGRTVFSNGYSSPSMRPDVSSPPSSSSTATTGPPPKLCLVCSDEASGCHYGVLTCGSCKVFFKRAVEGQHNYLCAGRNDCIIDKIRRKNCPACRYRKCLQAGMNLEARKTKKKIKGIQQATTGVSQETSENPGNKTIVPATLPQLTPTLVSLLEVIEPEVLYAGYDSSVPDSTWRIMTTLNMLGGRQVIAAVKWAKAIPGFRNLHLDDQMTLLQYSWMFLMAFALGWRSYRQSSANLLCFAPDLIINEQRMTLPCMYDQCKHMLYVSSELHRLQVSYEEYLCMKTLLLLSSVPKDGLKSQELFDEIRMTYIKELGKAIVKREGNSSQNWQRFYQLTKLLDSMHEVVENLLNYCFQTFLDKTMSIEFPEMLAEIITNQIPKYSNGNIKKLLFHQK
Protocol: The activities of the peptide conjugates in Examples 32 and 33 at the glucocorticoid receptor were tested in the luciferase reporter gene assay using two clones of HeLa cells (ATCC #CCL-2) transfected with murine mammary tumor virus long terminal repeat-driven firefly luciferase.

T1 sequence (P43220 24-463, species assumed): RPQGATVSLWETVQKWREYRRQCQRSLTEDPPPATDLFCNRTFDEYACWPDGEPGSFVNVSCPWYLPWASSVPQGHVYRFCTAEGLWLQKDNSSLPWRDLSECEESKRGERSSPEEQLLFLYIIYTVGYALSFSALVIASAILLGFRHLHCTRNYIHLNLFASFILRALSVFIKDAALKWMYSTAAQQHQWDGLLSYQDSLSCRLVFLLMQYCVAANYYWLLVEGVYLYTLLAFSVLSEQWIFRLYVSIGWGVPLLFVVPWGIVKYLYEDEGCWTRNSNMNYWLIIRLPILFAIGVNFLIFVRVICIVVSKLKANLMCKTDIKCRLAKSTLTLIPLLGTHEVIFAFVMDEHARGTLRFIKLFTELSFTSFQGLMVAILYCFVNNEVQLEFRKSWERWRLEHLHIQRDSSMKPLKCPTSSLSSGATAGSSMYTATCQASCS

Molecule: CC[C@H](C)[C@H](NC(=O)[C@H](Cc1ccccc1)NC(=O)[C@H](CCC(=O)O)NC(=O)[C@H](CCCCN)NC(=O)[C@H](C)NC(=O)[C@H](C)NC(=O)[C@H](CCC(N)=O)NC(=O)[C@H](CCC(=O)O)NC(=O)[C@H](CCC(=O)O)NC(=O)[C@H](CC(C)C)NC(=O)[C@H](Cc1ccc(O)cc1)NC(=O)[C@H](CO)NC(=O)[C@H](CO)NC(=O)[C@@H](NC(=O)[C@H](CC(=O)O)NC(=O)[C@H](CO)NC(=O)[C@@H](NC(=O)[C@H](Cc1ccccc1)NC(=O)[C@@H](NC(=O)CNC(=O)[C@H](CCC(=O)O)NC(=O)C(C)(C)NC(=O)[C@@H](N)Cc1c[nH]cn1)[C@@H](C)O)[C@@H](C)O)C(C)C)C(=O)N[C@@H](C)C(=O)N[C@@H](Cc1c[nH]c2ccccc12)C(=O)N[C@@H](CC(C)C)C(=O)N[C@H](C(=O)N[C@@H](CCCCN)C(=O)NCC(=O)NCC(=O)N1CCC[C@H]1C(=O)N[C@@H](CO)C(=O)N[C@@H](CO)C(=O)NCC(=O)N[C@@H](C)C(=O)N1CCC[C@H]1C(=O)N1CCC[C@H]1C(=O)N1CCC[C@H]1C(=O)N[C@@H](CO)C(=O)N[C@@H](CCCCNC(=O)COc1ccc2c(c1)CC[C@@H]1[C@@H]2CC[C@]2(C)[C@@H](O)CC[C@@H]12)C(N)=O)C(C)C [GLP-1/Estrogen(3-ether)]
- EC50 (GLP-1 receptor [1]): 0.012 ± 0.003 nM
- IC50 (GLP-1 receptor [2]): 0.717 ± 0.135 nM

Molecule: SEQ ID NO: 22: glucagon analog generated by substituting the native glutamine at position 3 with glutamic acid
- selectivity for the GLP-1 receptor (GLP-1 receptor [3]): approximately a tenfold selectivity

Molecule: [Aib2, E16]GLP-1-CEX-Lys40(NHCO—O-DEX)
- agonist activity at the glucocorticoid receptor (glucocorticoid receptor): retained the greatest amount of activity at the glucocorticoid receptor
